In a melting point compilation (Tetko et al.; mined from patent text by program, amines drawn as free bases though some values may be those of a salt):

Row | melting point | SMILES
1 | 109 to 110 °C | CC(C)(C)OC(=O)NC(CC(=O)NCCC(=O)OCc1ccccc1)C(=O)NCCC(=O)OCc1ccccc1 (centres undefined)
2 | 98 to 100 °C | Cc1ccc(S(=O)(=O)OCC2Cc3cccc(-c4ccccc4C)c3O2)cc1 (centres undefined)
3 | 100 to 102 °C | CCOC(=O)CNc1c(C#N)cnn1-c1ccc(C(F)(F)F)cc1Cl
4 | 136 to 138 °C | CN1CCC(Oc2ccc([N+](=O)[O-])cc2)(c2ccccc2)CC1
5 | 150 to 151 °C | COc1ccc(COc2ccc(CC(=O)O)cc2Cl)cc1Cl
6 | 96 to 99 °C | CCOC(=O)Cn1c(=O)sc2cccc(Oc3ccccc3)c21
7 | 60 to 62 °C | CCOC(=O)Cc1ccc2c(c1)sc1ccccc12
8 | > 200 °C | CCc1nc(C)c(/C=C(\NC(=O)c2ccc(C(=O)NCc3cccc(O)c3)cc2Cl)C(=O)O)s1
9 | 253 to 258 °C | Cc1ccc(C(=O)NCc2cc(C(C)(C)O)cc(C(F)(F)F)c2)cc1Nc1nccc(-c2cccnc2)n1
10 | 159 to 160 °C | CN(C)c1ccc(/C=C/c2ccc(F)c(F)c2)cc1
11 | 251 to 252 °C | Nc1ccccc1C(=O)Nc1cc2c(cc1F)OCC(=O)N2
12 | 209 to 210 °C | COC1(c2cc(F)cc(S(=O)(=O)c3ccc4c(c3)OCCC4=NO)c2)CCOCC1
13 | 120 to 122 °C | CCOC=Nc1c2oc3ccccc3c2nn1C
14 | 225 to 226 °C | O=C1NC(=S)CCC1N1C(=O)c2ccccc2C1=O (centres undefined)
15 | 293 °C | CN(C)/C=c1\c2ccccc2c2[nH]c(=O)c3nccn3c12
16 | 137 °C | Cc1ccc(S(=O)(=O)N2[C@@H](C(N)=O)CC[C@H]2c2ccc(F)cc2)cc1 (racemic)
17 | 124 to 136 °C | COC1(c2cc(F)cc(Sc3ccc4c(c3)C=CC4=NO)c2)CCOCC1
18 | 166 to 168 °C | CC(C)(C)c1cc(C(=O)c2ccc(C#N)cc2)cc(C(C)(C)C)c1O
19 | 65 to 70 °C | CN1C(=O)C(c2ccc(OC(F)F)cc2)(c2ccc(F)c(CCCC#N)c2)N=C1N (centres undefined)
20 | 160 °C | Cc1cc(-c2ccc(C(F)(F)F)cc2)cc(-c2cccc(-c3ccnc(N)c3)n2)n1
21 | 158 to 160 °C | CCc1nc([C@@H]2C[C@H]2c2nc3ccccc3n2C)cc(-n2nc(C)nc2C)n1 (relative stereo)
22 | 159 to 160 °C | CCN1C(=O)C(C)(C)C(=O)N(C)c2cc(CN(CCn3c(=O)ccc4ccccc43)Cc3ccc(C)nc3C)ccc21
23 | 82 to 83 °C | CCCCCCCCCCc1ccc(C(=O)NOCc2ccccc2)cc1
24 | 240 to 242 °C | O=P(O)(O)COc1ccc(-c2c3ccccc3cc3sc4ccccc4c23)cc1
25 | 156 to 157 °C | O=C1Nc2cc3c(cc2OC1CCCN1CCN(c2ccc(F)cc2)CC1)CCCC3 (centres undefined)

Row | melting point | SMILES
26 | 88 to 93 °C | CC(C)C(=O)NCCC1C=CC=CC1=O (centres undefined)
27 | 75 to 78 °C | O=C1C(=Cc2ccccc2)CCCC1c1ccccc1 (centres undefined)
28 | 147 to 149 °C | COc1ccc(C(=O)O)c2c1OC(C)(C)C2
29 | 127 to 129 °C | C=C1CCC(C(O)C(N)=O)CC1 (centres undefined)
30 | 79 to 80 °C | O=S(=O)(c1ccc2ccccc2c1)N1C[C@@H](S)C[C@@H]1COCc1ccccc1
31 | > 300 °C | COc1ccccc1NC(=O)Nc1nc(Nc2ccc(CC(=O)O)cc2)nc(Nc2ccccc2-c2ccccc2)n1
32 | 107 to 110 °C | Cc1oc(-c2ccccc2)nc1CCOc1ccc(CC(Nc2ccccc2C(=O)c2ccccc2C(=O)O)C(=O)O)cc1 (centres undefined)
33 | 211 to 213 °C | COc1cc2nc(N3CCN(C(=O)C4CC=CCC4)CC3)nc(N)c2cc1OC (centres undefined)
34 | 159 to 161 °C | OC(Cc1ccc(C(F)(F)F)cc1)(Cn1ccnc1)Cn1cncn1 (centres undefined)
35 | 154 to 155 °C | O=S(=O)(C(/C=C/c1ccc(Cl)cc1)c1c(F)c(F)c(F)c(F)c1F)C(/C=C/c1ccc(Cl)cc1)c1c(F)c(F)c(F)c(F)c1F (centres undefined)
36 | 74 to 76 °C | Cc1cccc(C)c1N(CC(=O)N(C)C)C(=O)CCl
37 | 101 to 105 °C | CCN1CCN(CCOc2cc3ncc(C#N)c(Nc4cc(OC)c(Cl)cc4Cl)c3cc2OC)CC1
38 | 205 to 206 °C | COc1cc2c(Nc3cccc(Cl)c3F)ncnc2cc1OC1CCN(C(=O)[C@@H](O)C(C)(C)C)CC1
39 | 71 to 72 °C | CCCC(=O)NC1C=CC(CO)C1 (centres undefined)
40 | 137 to 141 °C | O=C1N(CC2CCCO2)c2cccc(Br)c2C12COc1cc3c(cc12)CCO3 (centres undefined)
41 | 195 to 197 °C | Cc1[nH]n(-c2c(Cl)cc(C(F)(F)F)cc2Cl)c(=O)c1C=O
42 | 136 °C | CSc1nn(C(=O)NC2CCCCC2)c(=O)n1C
43 | 103 °C | CN1c2ccccc2Sc2c(C=O)cccc21
44 | 166 to 167 °C | CC(C)(C)OC(=O)Nc1cc(Cl)c(C#Cc2ccccc2)cc1[N+](=O)[O-]
45 | 145 to 147 °C | CCCCCCCCCCNC(=O)Nc1ccc(N(C)C)cc1C(=O)NCC1CCN(C(c2ccccc2)c2ccccc2)CC1
46 | 193 to 194 °C | Cc1ccc(OCC(=O)O)c(C(=O)NCc2cccc([N+](=O)[O-])c2)c1
47 | 124 to 125 °C | CCOC(=O)CN(c1cccc2cc(-c3nccs3)n(COC)c12)S(=O)(=O)c1cccs1
48 | 233 to 236 °C | CSc1ccc(-c2nc(SC)c(C#N)c(=O)n2-c2ccc(C(C)(C)C)cc2)cc1
49 | 231 to 232 °C | C[C@H](Cn1cccn1)n1cnc2cc3c(=O)n([C@H](C)Cn4cc(Cl)cn4)cnc3cc2c1=O
50 | 90 to 92 °C | CC(C)(C)OC(=O)N1C(=O)c2ccccc2C1=O

Row | melting point | SMILES
51 | 171 to 172 °C | CC(C)[C@H]1CC[C@H](C(=O)N[C@H](Cc2ccc(OCc3ccc(C(F)(F)F)cc3)cc2)C(=O)O)CC1
52 | 167 to 169 °C | CCc1ccc2c(c1)OC(C(F)(F)F)C(C(=O)O)=C2 (centres undefined)
53 | 118 to 119 °C | CCOC(=O)c1c(CCCCn2cncn2)nc2sc3cnccc3c2c1-c1ccc(OC)c(OC)c1
54 | 139 to 140 °C | CCOC(=O)Cc1c(-c2ccc(Cl)cc2)nn2cc(Cl)cnc12
55 | 124 to 126 °C | COc1ccc2c(n1)CCC(=NO)C2
56 | 132 to 134 °C | CC(C)(C)C(=O)c1[nH]c2cc(Cl)ccc2c1N
57 | 71 to 73 °C | O=S(=O)(Nc1cccc(CCOCc2cccc(-c3ccc(F)cc3)n2)c1)C(F)(F)F
58 | 58 to 60 °C | CCOC(=O)COc1cccc2c1CCCC2=O
59 | 253 to 255 °C | Cc1nc(-n2ccc(NCc3ccccc3)cc2=O)sc1C(=O)NCc1ccccc1
60 | 160 to 162 °C | CCOC(=O)C(N=Nc1ccccc1C(=O)c1ccccn1)NC(=O)CCl (centres undefined)
61 | 238 to 240 °C | O=c1c(C2=Nc3ccccc3S(=O)(=O)N2)c(O)c2ccccc2n1CCCCO
62 | 185 to 188 °C | CCCCCCS(=O)(=O)c1nn2c(=O)c(Cl)c(F)nc2s1
63 | 51 to 54 °C | CCN(CC)CCNC(=O)c1[nH]c(-c2ccc(Cl)cc2)c2ccccc12
64 | 185 to 190 °C | CC(C)(C)C(=O)OCc1nc2cc3c(cc2c(=O)[nH]1)C(=O)CC3
65 | 118 to 120 °C | CC(=O)NNc1ccc(NCc2ccccc2)cc1
66 | 90 to 91 °C | Cc1c2c(c(C)c3c1NCC3)OC(C)(CI)C2 (centres undefined)
67 | 156 to 158 °C | O=C(O)CCCn1ccn(C2CCc3ccccc3C2)c1=S (centres undefined)
68 | 196 °C | O=C(c1ccc(I)cc1)c1ccc2noc(-c3cccc(Cl)c3)c2c1
69 | 244 to 246 °C | CCC1CCn2c(nc(-c3ccncc3)cc2=O)N1 (centres undefined)
70 | 158 °C | COc1ccc(CN(C(=O)C2CCCc3c(O)cccc32)c2ccc(C(C)C)cc2)cn1 (centres undefined)
71 | 285 to 286 °C | CSc1sc(C(N)=O)c2c1-c1nn(C)cc1CC2
72 | 123 to 124 °C | CCOC(=O)N1CCN(c2ncnc3c2cnn3Cc2ccncc2)CC1
73 | 86 °C | Cc1cc(-n2cncn2)c2cccc(OCc3c(Cl)ccc(S(=O)(=O)N4CCC[C@H]4C(=O)NCCCN4CCCC4)c3Cl)c2n1
74 | 109 °C | N#Cc1cc(N)ccc1N1CCN(C2CCSCC2)CC1
75 | 161 to 163 °C | CCOC(=O)c1ccc(NC(=O)C=C(c2ccc(F)cc2)c2ccc(F)cc2)cc1

Row | melting point | SMILES
76 | 295 °C | COc1ccc(-c2nnc(NC3CCN(Cc4ccc(C(=O)O)cc4)CC3)c3cc(OC)ccc23)cc1
77 | 97 to 98 °C | CCOC(=O)ON(C(=O)NC)c1ccc(Cl)c(Cl)c1
78 | 78 to 79 °C | CC(O)(CCCl)c1ccc(-c2ccc(F)cc2)cc1 (centres undefined)
79 | 169 to 171 °C | Cc1cnn(-c2nc3ccccc3c(=O)[nH]2)c1
80 | 220 to 222 °C | Cn1nnnc1-c1cn(C)c2ccccc2c1=O
81 | 308 to 310 °C | CN(c1ccc(-c2ccc(C(=N)N)cc2)nn1)[C@H]1CC[C@H](C(=O)O)CC1
82 | 132 to 133 °C | CC(=O)OCc1cc2cc(OCc3ccccc3)ccc2n1Cc1ccc(C(C)(C)C)cc1
83 | 96 to 97 °C | CN1Cc2c(cc(CN3CCOCC3)n2C)C(c2ccccc2)C1 (centres undefined)
84 | 115 to 117 °C | O=C(NCCCc1ccc(CCl)cc1)c1ccc(-c2ccccn2)cc1
85 | 46 to 48 °C | Cc1cccc2c(Cl)cc(C(F)(F)Cl)nc12
86 | 198 to 201 °C | C(=C\c1cc(/C=C/c2c[nH]c3ccccc23)n[nH]1)/c1cccc(OCc2ccccn2)c1
87 | 63 to 73 °C | Cn1c(-c2ccc(-n3ccnc3)cc2)cnc1[C@H](Cc1ccccn1)N(C=O)c1cc2cc(Cl)ccc2o1
88 | 99 to 100 °C | OC1CCc2cc3ccccc3n2C1 (centres undefined)
89 | 145 to 147 °C | CNC(=O)[C@H](O)[C@@H](Sc1ccccc1N)c1ccc(OC)cc1
90 | 145 °C | O=CC1CC(O)c2ccccc2C1O (centres undefined)
91 | 95 to 98 °C | CCOC(=O)C(=NOCCBr)c1csc(NC=O)n1
92 | 245 °C | CN(C)C(=O)N1CCC2(CC1)CN=C(c1cc3cccc(N(C)S(=O)(=O)c4cccs4)c3[nH]1)S2
93 | 209 to 212 °C | O=C1NC(=O)C(c2ccccc2Cl)C1c1cc2c3c(ccn3CCC2)c1 (centres undefined)
94 | 144 to 146 °C | CCOCc1nc2c(N)nc3c(c2n1NC(C)C)CCCC3
95 | 138 to 139 °C | COc1ccc(S(=O)(=O)c2c(C(C)C)nn3ccccc23)cc1
96 | 241 to 244 °C | COc1c(OC(C)=O)ccc2cc[nH]c12
97 | 81 to 83 °C | COc1cc(Sc2ccncc2)cc2ccoc12
98 | 239 to 241 °C | CC(C)(C)C(=O)c1c[nH]c2ncc(-c3cccc(N)c3)nc12

Row | SMILES | melting point
99 | CC1CC1n1cc(C(=O)O)c(=O)c2cc(F)c(N3CCNCC3)cc21 (centres undefined) | 110 to 120 °C
